Measured values reported in US20230017045A1, “PYRIDINE AND PYRIMIDINE CARBOXYLATE HERBICIDES AND METHODS OF USE THEREOF” (Dow AgroSciences LLC, priority 2017, published 2023).

What follows are molecules tested on test plant species (assay: Post-emergent herbicidal activity test (greenhouse, foliar spray, visual growth reduction)). Settings: post-emergence, 336 h, ECHCG: barnyardgrass (Echinochloa crus-galli), 140 g ai/ha, 14 days after application, read-out: Visual Growth Reduction (%) 14 Days After Application, ECHCG.
Format: in vivo
Experimental: Post-emergent Test: Seeds or nutlets of the desired test plant species were planted in Sun Gro Metro-Mix® 360 planting mixture, which typically has a pH of 6.0 to 6.8 and an organic matter content of about 30 percent, in plastic pots with a surface area of 64 square centimeters. In some aspects, to ensure good germination and healthy plants, a fungicide treatment and/or other chemical or physical treatment was applied. The plants were grown for 7-21 d in a greenhouse with an approximate 15 h photoperiod which was maintained at 23-29° C. during the day and 22-28° C. during the night. Nutrients and water were added on a regular basis and supplemental lighting was provided with overhead metal halide 1000-Watt lamps as necessary. Plants were used for testing when they reached the first or second true leaf stage. A weighed amount, determined by the highest rate to be tested, of each test compound was placed in a 25 mL glass vial and was dissolved in 4 mL of a 97:3 v/v mixture of acetone and DMSO to obtain concentrated stock solutions. […] The concentrated stock solutions obtained were diluted with 20 mL of an aqueous mixture containing acetone, water, isopropyl alcohol, DMSO, […] crop oil concentrate, and X-77 surfactant in a 48.5:39:10:1.5:1.0:0.02 v/v ratio to obtain spray solutions containing the application rate. Compound requirements are based upon a 12 mL application volume at a rate of 187 liters per hectare (L/ha). Formulated compounds were applied to the plant material with an overhead Mandel track sprayer equipped with […] nozzles calibrated to deliver 187 L/ha over an application area of 0.64 square meters at a spray height of 18 inches (43 cm) above the average plant canopy height. Control plants were sprayed in the same manner with the solvent blank. The treated plants and control plants were placed in a greenhouse as described above and watered by subirrigation to prevent wash-off of the test compounds. After 14 d, the condition of the test plants as compared with that of the nontreated and control plants was determined visually and scored on a scale of 0 to 100 percent where 0 corresponds to no injury and 100 corresponds to complete control. In the reporting of the results, Table A: Percent Growth Reduction Conversion Table was used.

| Structure (SMILES) | pest or weed control at 140 g/ha [%] |
| --- | --- |
| CCOc1cc(C(F)(F)F)ccc1-c1nc(C(=O)OC)c(Cl)cc1F [F311, Methyl 3-chloro-6-(2-ethoxy-4-(trifluoromethyl)phenyl)-5-fluoropicolinate] | 0 to 29 |
| CCCCOc1c(Cl)ccc(-c2ccc(Cl)c(C(=O)OC)n2)c1F [F279, Methyl 6-(3-butoxy-4-chloro-2-fluorophenyl)-3-chloropicolinate] | 0 to 29 |

Same assay, conditions: post-emergence, 336 h, IPOHE: ivy-leaf morning glory (Ipomoea hederacea), 140 g ai/ha, 14 days after application, read-out: Visual Growth Reduction (%) 14 Days After Application, IPOHE

| Structure (SMILES) | pest or weed control at 140 g/ha [%] |
| --- | --- |
| CCOc1cc(C(F)(F)F)ccc1-c1nc(C(=O)OC)c(Cl)cc1F [F311, Methyl 3-chloro-6-(2-ethoxy-4-(trifluoromethyl)phenyl)-5-fluoropicolinate] | 95 to 100 |
| CCCCOc1c(Cl)ccc(-c2ccc(Cl)c(C(=O)OC)n2)c1F [F279, Methyl 6-(3-butoxy-4-chloro-2-fluorophenyl)-3-chloropicolinate] | 0 to 29 |

Same assay, conditions: post-emergence, 336 h, KCHSC: kochia (Bassia scoparia), 140 g ai/ha, 14 days after application, read-out: Visual Growth Reduction (%) 14 Days After Application, KCHSC

| Structure (SMILES) | pest or weed control at 140 g/ha [%] |
| --- | --- |
| CCOc1cc(C(F)(F)F)ccc1-c1nc(C(=O)OC)c(Cl)cc1F [F311, Methyl 3-chloro-6-(2-ethoxy-4-(trifluoromethyl)phenyl)-5-fluoropicolinate] | 0 to 29 |
| CCCCOc1c(Cl)ccc(-c2ccc(Cl)c(C(=O)OC)n2)c1F [F279, Methyl 6-(3-butoxy-4-chloro-2-fluorophenyl)-3-chloropicolinate] | 0 to 29 |

Same assay, conditions: post-emergence, 336 h, ORYSA: rice (Oryza sativa), 140 g ai/ha, 14 days after application, read-out: Visual Growth Reduction (%) 14 Days After Application, ORYSA

| Structure (SMILES) | pest or weed control at 140 g/ha [%] |
| --- | --- |
| CCOc1cc(C(F)(F)F)ccc1-c1nc(C(=O)OC)c(Cl)cc1F [F311, Methyl 3-chloro-6-(2-ethoxy-4-(trifluoromethyl)phenyl)-5-fluoropicolinate] | 0 to 29 |
| CCCCOc1c(Cl)ccc(-c2ccc(Cl)c(C(=O)OC)n2)c1F [F279, Methyl 6-(3-butoxy-4-chloro-2-fluorophenyl)-3-chloropicolinate] | 0 to 29 |

Same assay, conditions: post-emergence, 336 h, SETFA: giant foxtail (Setaria faberi), 140 g ai/ha, 14 days after application, read-out: Visual Growth Reduction (%) 14 Days After Application, SETFA

| Structure (SMILES) | pest or weed control at 140 g/ha [%] |
| --- | --- |
| CCOc1cc(C(F)(F)F)ccc1-c1nc(C(=O)OC)c(Cl)cc1F [F311, Methyl 3-chloro-6-(2-ethoxy-4-(trifluoromethyl)phenyl)-5-fluoropicolinate] | 0 to 29 |
| CCCCOc1c(Cl)ccc(-c2ccc(Cl)c(C(=O)OC)n2)c1F [F279, Methyl 6-(3-butoxy-4-chloro-2-fluorophenyl)-3-chloropicolinate] | 0 to 29 |

Same assay, conditions: post-emergence, 336 h, SORVU: grain sorghum (Sorghum vulgare), 140 g ai/ha, 14 days after application, read-out: Visual Growth Reduction (%) 14 Days After Application, SORVU

| Structure (SMILES) | pest or weed control at 140 g/ha [%] |
| --- | --- |
| CCOc1cc(C(F)(F)F)ccc1-c1nc(C(=O)OC)c(Cl)cc1F [F311, Methyl 3-chloro-6-(2-ethoxy-4-(trifluoromethyl)phenyl)-5-fluoropicolinate] | 75 to 84 |
| CCCCOc1c(Cl)ccc(-c2ccc(Cl)c(C(=O)OC)n2)c1F [F279, Methyl 6-(3-butoxy-4-chloro-2-fluorophenyl)-3-chloropicolinate] | 0 to 29 |

Same assay, conditions: post-emergence, 336 h, STEME: common chickweed (Stellaria media), 140 g ai/ha, 14 days after application, read-out: Visual Growth Reduction (%) 14 Days After Application, STEME

| Structure (SMILES) | pest or weed control at 140 g/ha [%] |
| --- | --- |
| CCOc1cc(C(F)(F)F)ccc1-c1nc(C(=O)OC)c(Cl)cc1F [F311, Methyl 3-chloro-6-(2-ethoxy-4-(trifluoromethyl)phenyl)-5-fluoropicolinate] | 0 to 29 |
| CCCCOc1c(Cl)ccc(-c2ccc(Cl)c(C(=O)OC)n2)c1F [F279, Methyl 6-(3-butoxy-4-chloro-2-fluorophenyl)-3-chloropicolinate] | 0 to 29 |

Same assay, conditions: post-emergence, 336 h, TRZAS: wheat, spring (Triticum aestivum), 140 g ai/ha, 14 days after application, read-out: Visual Growth Reduction (%) 14 Days After Application, TRZAS

| Structure (SMILES) | pest or weed control at 140 g/ha [%] |
| --- | --- |
| CCOc1cc(C(F)(F)F)ccc1-c1nc(C(=O)OC)c(Cl)cc1F [F311, Methyl 3-chloro-6-(2-ethoxy-4-(trifluoromethyl)phenyl)-5-fluoropicolinate] | 0 to 29 |
| CCCCOc1c(Cl)ccc(-c2ccc(Cl)c(C(=O)OC)n2)c1F [F279, Methyl 6-(3-butoxy-4-chloro-2-fluorophenyl)-3-chloropicolinate] | 0 to 29 |

Same assay, conditions: post-emergence, 336 h, blackgrass (Alopecurus myosuroides), 14 Days After Application, 140 g ai/ha, read-out: Visual Growth Reduction (%) ALOMY

| Structure (SMILES) | pest or weed control at 140 g/ha [%] |
| --- | --- |
| CCOc1cc(C(F)(F)F)ccc1-c1nc(C(=O)OC)c(Cl)cc1F [F311, Methyl 3-chloro-6-(2-ethoxy-4-(trifluoromethyl)phenyl)-5-fluoropicolinate] | 0 to 29 |
| CCCCOc1c(Cl)ccc(-c2ccc(Cl)c(C(=O)OC)n2)c1F [F279, Methyl 6-(3-butoxy-4-chloro-2-fluorophenyl)-3-chloropicolinate] | 0 to 29 |

Same assay, conditions: post-emergence, 336 h, canada thistle (Cirsium arvense), 14 Days After Application, 140 g ai/ha, read-out: Visual Growth Reduction (%) CIRAR

| Structure (SMILES) | pest or weed control at 140 g/ha [%] |
| --- | --- |
| CCOc1cc(C(F)(F)F)ccc1-c1nc(C(=O)OC)c(Cl)cc1F [F311, Methyl 3-chloro-6-(2-ethoxy-4-(trifluoromethyl)phenyl)-5-fluoropicolinate] | 0 to 29 |
| CCCCOc1c(Cl)ccc(-c2ccc(Cl)c(C(=O)OC)n2)c1F [F279, Methyl 6-(3-butoxy-4-chloro-2-fluorophenyl)-3-chloropicolinate] | 0 to 29 |

Same assay, conditions: post-emergence, 336 h, crabgrass (Digitaria sanguinalis), 14 Days After Application, 140 g ai/ha, read-out: Visual Growth Reduction (%) DIGSA

| Structure (SMILES) | pest or weed control at 140 g/ha [%] |
| --- | --- |
| CCOc1cc(C(F)(F)F)ccc1-c1nc(C(=O)OC)c(Cl)cc1F [F311, Methyl 3-chloro-6-(2-ethoxy-4-(trifluoromethyl)phenyl)-5-fluoropicolinate] | 0 to 29 |
| CCCCOc1c(Cl)ccc(-c2ccc(Cl)c(C(=O)OC)n2)c1F [F279, Methyl 6-(3-butoxy-4-chloro-2-fluorophenyl)-3-chloropicolinate] | 0 to 29 |

Same assay, conditions: post-emergence, 336 h, lambsquarters (Chenopodium album), 14 Days After Application, 140 g ai/ha, read-out: Visual Growth Reduction (%) CHEAL

| Structure (SMILES) | pest or weed control at 140 g/ha [%] |
| --- | --- |
| CCOc1cc(C(F)(F)F)ccc1-c1nc(C(=O)OC)c(Cl)cc1F [F311, Methyl 3-chloro-6-(2-ethoxy-4-(trifluoromethyl)phenyl)-5-fluoropicolinate] | 30 to 44 |
| CCCCOc1c(Cl)ccc(-c2ccc(Cl)c(C(=O)OC)n2)c1F [F279, Methyl 6-(3-butoxy-4-chloro-2-fluorophenyl)-3-chloropicolinate] | 0 to 29 |

Same assay, conditions: post-emergence, 336 h, redroot pigweed (Amaranthus retroflexus), 14 Days After Application, 140 g ai/ha, read-out: Visual Growth Reduction (%) AMARE

| Structure (SMILES) | pest or weed control at 140 g/ha [%] |
| --- | --- |
| CCOc1cc(C(F)(F)F)ccc1-c1nc(C(=O)OC)c(Cl)cc1F [F311, Methyl 3-chloro-6-(2-ethoxy-4-(trifluoromethyl)phenyl)-5-fluoropicolinate] | 0 to 29 |
| CCCCOc1c(Cl)ccc(-c2ccc(Cl)c(C(=O)OC)n2)c1F [F279, Methyl 6-(3-butoxy-4-chloro-2-fluorophenyl)-3-chloropicolinate] | 0 to 29 |

Same assay, conditions: post-emergence, 336 h, wild oat (Avena fatua), 14 Days After Application, 140 g ai/ha, read-out: Visual Growth Reduction (%) AVEFA

| Structure (SMILES) | pest or weed control at 140 g/ha [%] |
| --- | --- |
| CCOc1cc(C(F)(F)F)ccc1-c1nc(C(=O)OC)c(Cl)cc1F [F311, Methyl 3-chloro-6-(2-ethoxy-4-(trifluoromethyl)phenyl)-5-fluoropicolinate] | 0 to 29 |
| CCCCOc1c(Cl)ccc(-c2ccc(Cl)c(C(=O)OC)n2)c1F [F279, Methyl 6-(3-butoxy-4-chloro-2-fluorophenyl)-3-chloropicolinate] | 0 to 29 |

Same assay, conditions: post-emergence, 336 h, yellow nutsedge (Cyperus esculentus), 14 Days After Application, 140 g ai/ha, read-out: Visual Growth Reduction (%) CYPES

| Structure (SMILES) | pest or weed control at 140 g/ha [%] |
| --- | --- |
| CCOc1cc(C(F)(F)F)ccc1-c1nc(C(=O)OC)c(Cl)cc1F [F311, Methyl 3-chloro-6-(2-ethoxy-4-(trifluoromethyl)phenyl)-5-fluoropicolinate] | 0 to 29 |
| CCCCOc1c(Cl)ccc(-c2ccc(Cl)c(C(=O)OC)n2)c1F [F279, Methyl 6-(3-butoxy-4-chloro-2-fluorophenyl)-3-chloropicolinate] | 0 to 29 |
